The text below walks through data of patent US20150044244A1, “COMBINED FACILITATOR, ANTIGEN AND DNA VACCINE FOR PREVENTING AND TREATING AUTOIMMUNE DISEASES” (BEIJING ADVANCCINE BIOTECHNOLOGY CO. LTD., priority 2011, published 2015).

In one assay the test system is JAWS II cells. The experiment in a line: Endocytosis inhibitors and CD40low phenotype in JAWS II cells. It counts as cell-based, mouse. The settings on record: for effect on CD40low phenotype: pretreatment before pOVA323+OVA323. The procedure: The JAWS II mouse DC line was purchased from the American Type Culture Collection (ATCC, Manassas, Va., USA) and maintained in complete growth medium containing minimum essential medium (MEM) alpha with ribonucleosides, deoxyribonucleosides, 4 mM L-glutamine, and 1 mM sodium pyruvate (Invitrogen Inc., Carlsbad, Calif., USA), and supplemented with 20% fetal bovine serum (ATCC) and 5 ng/ml murine recombinant GM-CSF (R&D Systems, Inc., Minneapolis, Minn., USA). The cells were incubated at 37° C. with 5% CO2 and treated with different antigens (10 μg/ml) such as pVAX, pOVA, OVA, pOVA323 and OVA323 for 24 h. For inhibitor treatment, JAWS II cells were pre-treated with filipin (10 μg/ml), MDC (50 μM) for 30 min at 37° C., respectively, or with amiloride (5 mM) for 10 min at 37° C., and washed with medium, then stimulated with antigens.
DCs take up exogenous antigens via various mechanisms including clathrin-mediated endocytosis, caveolae-mediated endocytosis, and macropinocytosis. To define which pathway(s) were involved in the co-uptake of DNA and protein immunogens, JAWS II cells were pretreated with MDC, a specific inhibitor of clathrin formation, or filipin, an inhibitor of caveolae trafficking, before being treated with pOVA323+OVA323. […] Another inhibitor, amiloride, an inhibitor for macropinocytosis, had no effect on CD40 expression (FIG. 37).

The test system of assay [1] is RAW264.7, JAWSII and DC2.4. The experiment in a line: Cy5-pEGFP plasmid entry and GFP expression in APC cell lines with amiloride. The class given is cell-based, mouse. The settings on record: vs un-treated cells.
Assay [2] concerns Cy5+ cells in draining lymph nodes. The experiment in a line: Cy5-pEGFP plasmid entry into draining lymph node cells after footpad injection. It counts as in vivo, C57B/6 mice. The settings on record: 4 hrs after footpad injection. The procedure:
To explore if amiloride would overcome low transfection efficiency in vivo, Cy5-labeled pEFGP plasmid with or without amiloride was injected into hind footpads of C57B/6 mice. After 4 hrs, draining lymph nodes were collected and Cy5+ cells were analyzed by FACS analysis. The inguinal lymph nodes from the un-injected side were also collected as negative controls. […] The other ˜10% was B220+, a B cell marker. […].

For assay [3], the system named is RAW264.7, DC2.4 and JAWSII. Kind of assay: Maturation markers and innate cytokines after pcD-S2 with or without amiloride, cell lines. The class given is cell-based, mouse. Here is the method: With respect to cell culture and inhibitor treatment, RAW264.7 and DC2.4 were cultured in DMEM/10% FCS, and JAWSII was cultured in DMEM/10% FCS with GMCSF (1000 U/ml, Peprotech, USA). Amiloride (Sigma-Aldrich, USA) was prepared as 10 mM solution and was diluted to 1 mM, 100 uM, 10 uM in DMEM medium before treatment. After culture medium was removed, cells were treated with amiloride, MβCD (5 mM, Sigma) or Fillipin (10 μg/ml, sigma) at 37° C. for 1 h. LPS (10 μg/ml, sigma) or 10 μg/ml DNA in DMEM was added at 37° C. for 0.5 h, after wash, culture medium was added and cells were cultured. Peritoneal macrophage was prepared from peritoneal cavity with 10 ml PBS wash, routinely with ˜50-70% F4/80 purity. Spleen dendritic cell was prepared from plate-adhesive cells and purified with Miltenyi DC purification kit (Miltenyi Biotec, Gladbach, Germany). Cells were treated and cultured 3 days for innate response.
Hepatitis B virus DNA vaccine (pcD-S2) encoding for HBsAg, which was conjugated with Cy5, was used to test whether amiloride-facilitated DNA entry into antigen presenting cells could positively affect innate immune responses.

Assay [4] has as its system CD8 T cells co-cultured with peritoneal macrophages or spleen dendritic cells. Kind of assay: APC and CD8 T cell co-culture, S208-215 restimulation. It counts as cell-based, mice. Conditions: macrophages and DCs co-culture system. The procedure:
With respect to co-cultures, pcD-S2 (10 μg/ml) with or without 100 μM amiloride treat APCs, peritoneal macrophage or spleen dendrtic cell, were cultured for 2 days. At day3, purified CD8 T cell (R&D systems, USA) was added into culture with APC:T ratio of 1:5, 1:2, 1:1. At day 8, cells were collected and restimulated with S208-215 (10 μg/ml). PMA+Ionomycin was added as positive control for restimulation.
During the co-culture, HBsAg-derived peptide S208-215 (ILSPFLPL; H-2 Kb-restricted) was used to re-stimulate. Proportions of responsive T cells were analyzed.

The next assay concerns HBsAg. The settings on record: vs pcD-S2 alone; dose dependent manner.
Another assay relates to splenic CD4+ T cells. Kind of assay: In vitro restimulation of T cells from FSA1 sensitized mice. It counts as cell-based, C57BL/6 mice. The settings on record: than P66. Here is the method:
Splenic CD4^+ T cells from flea antigen immunized C57BL/6 mice were restimulated with P100 or P66 (5 ug/ml) in culture. T cell proliferation was determined by a 3-(4,5-Dimethylthiazol-2-yl)-2,5-diphenyltetrazolium bromide (MTT, a yellow tetrazole)-based assay. Concanavalin A (1 ug/ml) and BSA (1 ug/ml) were used as positive and negative controls, respectively. *, p<0.05. Shown is one of three independent experiments with similar results.
Flea allergic dermatitis is an allergic reaction to flea allergen that is mediated by CD4^+ T effector cells. To the above findings to a disease model, two antigenic epitopes from the flea allergen FSA1 were chosen, namely P66 (amino acids 66-80) (SEQ ID NO:189) and P100 (amino acids 100-114) (SEQ ID NO:188). […] This prediction was confirmed by sensitizing C57BL/6 mice (I-Ab^+) with full-length FSA1 followed by an in vitro restimulation assay using one of the epitopes.
With respect to T cell proliferation, MTT-based and CF SE-based T cell proliferation assays were performed as described before.

Another assay deals with flea allergic dermatitis. Kind of assay: Prophylactic co-immunization in flea allergic dermatitis model. It counts as in vivo, C57BL/6 mice. Conditions: than P66. The source says:
To see whether the difference in antigenicity influences the induction of CD25^− iTreg cells by these two epitopes, C57BL/6 mice were prophylactically treated with co-immunization using the combination of DNA and protein vaccines targeting each epitope (designated as Co100 or Co66). Seven days after co-immunization, the animals were sensitized with flea saliva extracts, followed by a delayed-type hypersensitivity assay to determine to which extent the prophylactic co-immunization prevents the development of an allergic reaction.
With respect to tolerogenic immunization, Balb/c mice were injected intramuscular (i.m.) on days 0 and 14 with 100 ug each of OVA323-339 and pVAX1-OVA, MT1 and pVAX1-MT1, or MT2 and pVAX1-MT2. C57BL/6 mice were similarly injected with P100 and D100, or P66 and D66.
With respect to the intradermal test and histology, antigen-sensitized C57BL/6 mice were challenged intradermally (i.d.) with 10 ug of FSA (Greer Laboratories) on the nonlesional lateral thorax skin. PBS is used as a sham control and histamine is used as a positive control. The diameter of the skin reaction was measured within 30 min after challenge using a calibrated micrometer. Skin samples were collected within 30 min of antigen challenge, fixed in 4% paraformaldehyde, embedded in paraffin, and sectioned. […]

The target of a further assay is T1, MHC-II (I-Ad) (Mus musculus, UniProt P01921+P04228).
T1 construct: purchased NIH Tetramer Core Facility
T1 sequence (P04228 24-218 limits assumed): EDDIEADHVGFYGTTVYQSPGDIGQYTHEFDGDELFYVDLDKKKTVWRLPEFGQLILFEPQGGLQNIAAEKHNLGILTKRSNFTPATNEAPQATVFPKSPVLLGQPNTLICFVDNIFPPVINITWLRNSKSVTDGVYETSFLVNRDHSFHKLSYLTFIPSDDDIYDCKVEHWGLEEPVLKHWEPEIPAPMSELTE
T1 sequence (P01921 28-226 limits assumed): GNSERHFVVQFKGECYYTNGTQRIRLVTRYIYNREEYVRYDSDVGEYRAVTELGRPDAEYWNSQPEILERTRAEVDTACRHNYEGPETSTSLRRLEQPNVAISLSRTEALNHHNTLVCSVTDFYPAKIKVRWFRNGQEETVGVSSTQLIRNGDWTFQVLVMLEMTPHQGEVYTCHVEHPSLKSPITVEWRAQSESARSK
The experiment in a line: Tetramer staining-based epitope competition assay. It counts as binding. Here is the method:
To further determine how antigenicity affects CD25^− iTreg induction, a set of mutated epitopes were generated from OVA323-339 (SEQ ID NO:187). Using a tetramer staining-based epitope competition assay, the affinity of each of the mutated epitopes for MHC-II was assessed. […] OVA323-339, MT1, and MT2 as probes for antigenicity studies were therefore selected.
With respect to the tetramer competition assay, PE-conjugated OVA323-339-loaded I-Ad tetramer (NIH Tetramer Core Facility) was competed with OVA323-339 or a mutant peptide by incubation of 2×10^5 DO11.10 T cells, the OVA323-339 tetramer, and a competing peptide together for 5 minutes. Five volumes of medium with 10% FCS were added to stop the competition. Cells were washed 3 times and immediately analyzed for PE-positive T cells by flow cytometer.

Another assay concerns CD4+CD25− naive T cells. Kind of assay: Foxp3-GFP induction in naive T cells with anti-CD3/anti-CD28 and cytokines. It counts as cell-based, Foxp3gfp mouse.

For the molecule `CN(C)c1cccc2c(S(=O)(=O)NCCCCCN)cccc12` [MDC, monodansylcadaverine], the “effect on CD40low phenotype” value with JAWS II cells is recorded as “could prevent”.
Turning to `N=C(N)NC(=O)c1nc(Cl)c(N)nc1N` [amiloride], the GFP expression entry in assay [1] (1 mM amiloride 1 h, after 3 days culture) was “significantly higher level of GFP”. Moreover, the “uptake of Cy5-labeled pEGFP plasmids” value in [1] (pre-treated with 1 mM amiloride for 1 h, within 2 hrs) is reported as “significantly taken up”. In addition, the “percentage of Cy5-plasmid+ cells in lymph nodes (LN)” value was “increased” in assay [2] (amiloride 10 μM), “peaked” in assay [2] (amiloride 100 μM) and “decreased” in assay [2] (amiloride 1 mM). The “expression of CD40, CD80 and CD86” value in assay [3] (pcD-S2 plasmid with amiloride treatment) was “higher levels of expression of CD40, CD80 and CD86”. In addition, in [3] (vs same cells without amiloride treatment), the “expression of TNF and IFN-γ” value is “higher levels of expression of TNF and IFN-γ”. In addition, the “percentage of S208-215 specific triple positive CD8 T effectors” value in [4] is “significantly increased”. The “effect on CD40 expression” value in the assay on JAWS II cells (amiloride (5 mM) for 10 min) is on record as “no effect”. For the same molecule, the “levels of antibody against HBsAg” value in the assay on HBsAg is reported as “increased”.
Turning to `CCCCC[C@@H](O)[C@H]1C(=O)O[C@H](C)[C@@H](O)/C=C/C=C/C=C/C=C/C=C(\C)[C@@H](O)C[C@H](O)C[C@H](O)C[C@H](O)C[C@H](O)C[C@H](O)C[C@@H]1O` [filipin], in the assay with JAWS II cells, the “relative effectiveness in preventing CD40low phenotype” value is “more effective than MDC” and the “effect on CD40low phenotype” value was “could prevent”.
As for GPDWKVSKECKDPNN (Pulex irritans) [P100], the T cell proliferation result in the assay on splenic CD4+ T cells is listed as “significantly more vigorous T cell proliferation”. Also, the “CD25− iTreg induced” value in the assay on flea allergic dermatitis is “induced more”.
Consider “ISQAVHAAHAEINEAGR (listed as Gallus gallus) [OVA323-339]”, for which the “order of affinity for MHC-II” value with MHC-II (I-Ad) is “OVA323-339>MT1>MT2=MT3”.
Turning to TGF-β1: titrated rhTGF-β1 (PeproTech), the “GFP (Foxp3) expression in CD25− T cells” value with CD4+CD25− naive T cells is listed as “up-regulated”.

B1: IL-10: rmIL10 (PeproTech) (protein, UniProt P18893 19-178, looked up)
Interleukin-10: SRGQYSREDNNCTHFPVGQSHMLLELRTAFSQVKTFFQTKDQLDNILLTDSLMQDFKGYLGCQALSEMIQFYLVEVMPQAEKHGPEIKEHLNSLGEKLKTLRMRLRRCHRFLPCENKSKAVEQVKSDFNKLQDQGVYKAMNEFDIFINCIEAYMMIKMKS
Turning to B1, in the assay with CD4+CD25− naive T cells, the “GFP (Foxp3) expression in CD25− T cells” value is recorded as “neither alone influenced the expression of Foxp3”.
